The text below walks through data of article PMC3691018 (Bioorganic & medicinal chemistry letters, 2013).

In one assay the target is Bacillus anthracis DNA replicative helicase (Bacillus anthracis, UniProt A0A0J1HKT7). The assay is described as follows: biochemical. It counts as biochemical.
For the molecule `COc1cc(/C=N/c2nc3ccc4nc(SC)sc4c3s2)cc(OC)c1OC` [Compound 65], the “Activity vs B. anthracis helicase (in words)” value was “lost activities” and the IC50 – broadly, the midpoint of a concentration-inhibition curve – was greater than 100 µM.

On to `COc1cccc(C(=O)Nc2nc3ccc4nc(NC5CCCCC5)sc4c3s2)c1` [Compound 53], for which the “Activity vs B. anthracis helicase (in words)” value was “significantly reduced activity”.

With `COc1cc(CNc2nc3ccc4nc(SC)sc4c3s2)cc(OC)c1OC` [Compound 64], the “Activity vs B. anthracis helicase (in words)” value is listed as “lost activities” and the concentration for half-maximal inhibition (IC50) is greater than 100 µM. Turning to `COc1cccc(C(=O)Nc2nc3ccc4nc(NCC(C)C)sc4c3s2)c1` [Compound 52], the “Activity vs B. anthracis helicase (in words)” value is listed as “modest inhibition”.

For `COc1cccc(C(=O)Nc2nc3ccc4nc(NC(C)C)sc4c3s2)c1` [Compound 51], the “Activity vs B. anthracis helicase (in words)” value is “significantly reduced activity”. Still for that read-out and setting: then `COc1cccc(C(=O)Nc2nc3ccc4nc(NCc5ccccc5)sc4c3s2)c1` [Compound 54], with “significantly reduced activity”.

In the next assay the test system is HeLa.
Assay: not given
It counts as cell-based.
On to `CNc1nc2ccc3nc(NC(=O)c4cc(OC)c(OC)c(OC)c4)sc3c2s1` [Compound 59], for which the “Selectivity index (SI = CC50/IC50)” value is reported as “greater than 500”.
